Values quoted from earlier work in patent US20170296470A1, “TWO SPEED MONOLOTHIC SYSTEM FOR CONTROLLED RELEASE OF DRUGS” (Matripharm Inc., priority 2011, published 2017).

Conditions: for numbers needed to harm: one out of N patients likely to suffer a first-time heart attack: patients in the age group of 65 and over; for risk of heart attack increased: patients prescribed the NSAID vs those who had not taken these drugs in the previous three years

Compound | numbers needed to harm: one out of N patients likely to suffer a first-time heart attack | risk of heart attack increased
CS(=O)(=O)c1ccc(C2=C(c3ccccc3)C(=O)OC2)cc1 [rofecoxib] | 695 patients | –
O=C(O)Cc1ccccc1Nc1c(Cl)cccc1Cl [diclofenac] | 521 patients | 55%
CC(C)Cc1ccc(C(C)C(=O)O)cc1 (centres unmarked) [ibuprofen] | 1005 patients | 24%
